System: participants with SSc-RP
Assay: Scleroderma Health Assessment Questionnaire (SHAQ): disability indices and visual analog scales
Assay type: in vivo, human
Description: The standard, validated, patient reported outcome measures tool for SSc patients, the Scleroderma Health Assessment Questionnaire (SHAQ), will be used to assess the participant qualify of life. Details are attached in the Appendix. The participant quality of life will be scored, and a disability index calculated for each questionnaire completed by the patient at Screening and each in-clinic visit. The absolute change in participant quality of life from baseline to the end of each dosing period will be calculated similar to frequency data as before.
The SHAQ includes a Raynaud's VAS, which will be reported at screening and each in-clinic visit. The absolute change in Raynaud-VAS, assessed by the participants response to the SHAQ question ‘In the past 7 days, how much have your Raynaud's interfered with your daily activities?’ at baseline and the end of each dosing period will be calculated similar to frequency data as before.
The SHAQ is used to calculate a Disability Index to assess the participant qualify of life. The eight categories assessed by the Disability Index are 1) dressing and grooming, 2) arising, 3) eating, 4) walking, 5) hygiene, 6) reach, 7) grip, and 8) common daily activities. For each of these categories, patients report the amount of difficulty they have in performing two or three specific activities.
There are four possible responses for the Disability Index questions: • Without any difficulty=0 • With some difficulty=1 • With much difficulty=2 • Unable to do=3. • The highest score reported by the patient for any component question of the eight categories determines the score for that category. • If a component question is left blank or the response is too ambiguous to assign a score, then the score for that category is determined by the remaining completed question(s). • If all component questions are blank or if more than one answer is given, then follow up with the respondent is required. • If the respondent's mark is between the response columns, then move it to the closest one. If it's directly between the two, move it to the higher one.
Each of the disability items on the SHAQ has a companion aids/devices variable that is used to record what type(s) of assistance, if any, the participant uses for his/her usual activities. These variables (see below) are coded as follows: • 0=No assistance is needed. • 1=A special device is used by the patient in his/her usual activities. • 2=The patient usually needs help from another person. • 3=The patient usually needs BOTH a special device AND help from another person.
The scoring variables and scoring rules permit the computation of two disability indices, the Standard Disability Index and the Alternative Disability Index.
This question results in a new set of category scores that are computed by adjusting the score for each category, if necessary, based on the patient's use of an aid or device or assistance for that category. If either devices and/or help from another person are checked for a category, the score is set to “2”, unless the score is already “3” (i.e., scores of “0” or “1” are increased to “2”). For example, if the highest score for the dressing category is “1”, and the patient says they use a device for dressing, the computed category score would be “2”. The sum of the computed categories scores is then calculated and divided by the number of categories answered. This gives a score in the 0 to 3 range.
The aid and device variables are not used to calculate the alternative disability index; it is calculated by adding the scores for each of the categories and dividing by the number of categories answered. This gives a score in the 0 to 3 range.
The standard, validated, patient reported outcome measures tool for SSc patients, the SHAQ, was collected at the time points specified in the study schedules (FIG. 2 and FIGS. 4A and 4B) to assess the participant's quality of life. The SHAQ included a Raynaud's VAS that will also be reported separately.

[1] = Cilnidipine 20 mg, PP Population Part A, SSc patients
[2] = Day 12, Cilnidipine 10 mg (N = 4), Patients with Diagnosis of SSc, PP Population Part A
[3] = Day 12, Cilnidipine 20 mg (N = 4), Patients with Diagnosis of SSc, PP Population Part A
[4] = Day 12, Modified ITT, Part A, dose Cilnidipine 10 mg, Tadalafil 5 mg, or 10 mg + 5 mg
[5] = Day 12, Modified ITT, Part A, dose Cilnidipine 20 mg, or 20 mg + Tadalafil 5 mg

SMILES: COCCOC(=O)C1=C(C)NC(C)=C(C(=O)OC/C=C/c2ccccc2)C1c1cccc([N+](=O)[O-])c1 (stereo not shown) [Cilnidipine, cilnidipine]
- SHAQ Visual Analogue Scale - Finger Ulcers, In-Clinic Visit (Day 12), Mean [1]: 0.650
- SHAQ Visual Analogue Scale - Finger Ulcers, In-Clinic Visit (Day 12), Median [1]: 0.350
- SHAQ Visual Analogue Scale - Intestinal Problems, In-Clinic Visit (Day 12), Mean [1]: 0.850
- SHAQ Visual Analogue Scale - Intestinal Problems, In-Clinic Visit (Day 12), Median [1]: 0.650
- SHAQ Visual Analogue Scale - Overall Disease Severity, In-Clinic Visit (Day 12), Mean [1]: 1.125
- SHAQ Visual Analogue Scale - Overall Disease Severity, In-Clinic Visit (Day 12), Median [1]: 1.300
- SHAQ Visual Analogue Scale - Pain, In-Clinic Visit (Day 12), Mean [1]: 1.875
- SHAQ Visual Analogue Scale - Pain, In-Clinic Visit (Day 12), Median [1]: 1.400
- SHAQ Visual Analogue Scale - Raynaud's, In-Clinic Visit (Day 12), Mean [1]: 1.875
- SHAQ Visual Analogue Scale - Raynaud's, In-Clinic Visit (Day 12), Median [1]: 1.250
- SHAQ Alternative Disability Index, Change from Baseline, Mean [2]: 0.063
- SHAQ Alternative Disability Index, Change from Baseline, Median [2]: 0.000
- SHAQ Alternative Disability Index, Percent Change from Baseline, Mean [2]: 15.87%
- SHAQ Alternative Disability Index, Percent Change from Baseline, Median [2]: 15.87%
- SHAQ Standard Disability Index, Change from Baseline, Mean [2]: 0.000
- SHAQ Standard Disability Index, Change from Baseline, Median [2]: 0.000
- SHAQ Standard Disability Index, Percent Change from Baseline, Mean [2]: 0.00%
- SHAQ Standard Disability Index, Percent Change from Baseline, Median [2]: 0.00%
- SHAQ Alternative Disability Index, Change from Baseline, Mean [3]: 0.000
- SHAQ Alternative Disability Index, Change from Baseline, Median [3]: −0.063
- SHAQ Alternative Disability Index, Percent Change from Baseline, Mean [3]: 5.56%
- SHAQ Alternative Disability Index, Percent Change from Baseline, Median [3]: −33.33%
- SHAQ Standard Disability Index, Change from Baseline, Mean [3]: −0.063
- SHAQ Standard Disability Index, Change from Baseline, Median [3]: −0.063
- SHAQ Standard Disability Index, Percent Change from Baseline, Mean [3]: −26.67%
- SHAQ Standard Disability Index, Percent Change from Baseline, Median [3]: −33.33%
- SHAQ Alternative Disability Index, Change from Baseline, Mean [4]: 0.063
- SHAQ Alternative Disability Index, Change from Baseline, Median [4]: 0.000
- SHAQ Alternative Disability Index, Percent Change from Baseline, Mean [4]: 15.87%
- SHAQ Alternative Disability Index, Percent Change from Baseline, Median [4]: 15.87%
- SHAQ Finger Ulcers, Change from Baseline, Mean [4]: −0.425
- SHAQ Finger Ulcers, Change from Baseline, Median [4]: −0.350
- SHAQ Finger Ulcers, Percent Change from Baseline, Mean [4]: −69.44%
- SHAQ Finger Ulcers, Percent Change from Baseline, Median [4]: −69.44%
- SHAQ Standard Disability Index, Change from Baseline, Mean [4]: 0.0
- SHAQ Standard Disability Index, Change from Baseline, Median [4]: 0.000
- SHAQ Standard Disability Index, Percent Change from Baseline, Mean [4]: 0.0%
- SHAQ Standard Disability Index, Percent Change from Baseline, Median [4]: 0.00%
- SHAQ Visual Analog Scale-Breathing Problems, Change from Baseline, Mean [4]: −0.300
- SHAQ Visual Analog Scale-Breathing Problems, Change from Baseline, Median [4]: 0.000
- SHAQ Visual Analog Scale-Breathing Problems, Percent Change from Baseline, Mean [4]: −16.00%
- SHAQ Visual Analog Scale-Breathing Problems, Percent Change from Baseline, Median [4]: −16.00%
- SHAQ Visual Analog Scale-Intestinal Problems, Change from Baseline, Mean [4]: −1.875
- SHAQ Visual Analog Scale-Intestinal Problems, Change from Baseline, Median [4]: −1.550
- SHAQ Visual Analog Scale-Intestinal Problems, Percent Change from Baseline, Mean [4]: −77.37%
- SHAQ Visual Analog Scale-Intestinal Problems, Percent Change from Baseline, Median [4]: −88.00%
- SHAQ Visual Analog Scale-Pain, Change from Baseline, Mean [4]: −0.100
- SHAQ Visual Analog Scale-Pain, Change from Baseline, Median [4]: 0.000
- SHAQ Visual Analog Scale-Pain, Percent Change from Baseline, Mean [4]: −9.88%
- SHAQ Visual Analog Scale-Pain, Percent Change from Baseline, Median [4]: 0.00%
- SHAQ Visual Analog Scale-Raynaud's, Change from Baseline, Mean [4]: 0.325
- SHAQ Visual Analog Scale-Raynaud's, Change from Baseline, Median [4]: 0.350
- SHAQ Visual Analog Scale-Raynaud's, Percent Change from Baseline, Mean [4]: 11.36%
- SHAQ Visual Analog Scale-Raynaud's, Percent Change from Baseline, Median [4]: −2.27%
- SHAQ Alternative Disability Index, Change from Baseline, Mean [5]: −0.083
- SHAQ Alternative Disability Index, Change from Baseline, Median [5]: −0.125
- SHAQ Alternative Disability Index, Percent Change from Baseline, Mean [5]: −41.67%
- SHAQ Alternative Disability Index, Percent Change from Baseline, Median [5]: −41.67%
- SHAQ Finger Ulcers, Change from Baseline, Mean [5]: −0.933
- SHAQ Finger Ulcers, Change from Baseline, Median [5]: 0.000
- SHAQ Finger Ulcers, Percent Change from Baseline, Mean [5]: 35.29%

Source: patent US20240358693A1, “METHODS OF TREATING PAIN” (Aisa Pharma, Inc., priority 2023, published 2024)
